Assays:
[1] = Purity of tapinarof in individual excipients on storage, related substances HPLC method; assay type: physicochemical
How it was run: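 The stability of the stilbene active ingredient was tested in individual excipients, one excipient per sample. Samples were analysed at time zero and after storage for up to 2 weeks. Purity of the active ingredient was determined by HPLC.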

[2] = Saturated solubility of tapinarof in individual excipients, by tapinarof assay HPLC or visually (Table 2); assay type: physicochemical; details: for Average saturated solubility of DMVT-505: visual solubility
How it was run: (§1)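 Values are the saturated solubility of the stilbene active ingredient in single pharmaceutical excipients, with one excipient tested per sample. Solubility was determined by an HPLC assay for the active ingredient or by visual inspection.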

[3] = Tapinarof saturated solubility in excipients (Table 1); assay type: physicochemical
How it was run: as §1

[4] = Gao et al., Journal of Polymer Research 2011; cited from earlier work

CC(C)c1c(O)cc(/C=C/c2ccccc2)cc1O [tapinarof, 3,5-Dihydroxy-4-isopropyl-trans-stilbene]
Purity of DMVT-505 ([1]; in Almond oil, t = 0): 100.00 % area
Purity of DMVT-505 ([1]; in Almond oil, t = 2 weeks, 40° C.): 99.96 % area
Purity of DMVT-505 ([1]; in Almond oil, t = 2 weeks, 70° C.): 99.84 % area
Purity of DMVT-505 ([1]; in Arlasolve DMI, t = 0): 99.55 % area
Purity of DMVT-505 ([1]; in Arlasolve DMI, t = 2 weeks, 40° C.): 96.75 % area
Purity of DMVT-505 ([1]; in Arlasolve DMI, t = 2 weeks, 70° C.): 95.14 % area
Purity of DMVT-505 ([1]; in Castor oil, t = 0): 100.00 % area
Purity of DMVT-505 ([1]; in Castor oil, t = 2 weeks, 40° C.): 100.00 % area
Purity of DMVT-505 ([1]; in Castor oil, t = 2 weeks, 70° C.): 99.92 % area
Purity of DMVT-505 ([1]; in Crodamol GTCC, t = 0): 99.92 % area
Purity of DMVT-505 ([1]; in Crodamol GTCC, t = 2 weeks, 40° C.): 96.46 % area
Purity of DMVT-505 ([1]; in Crodamol GTCC, t = 2 weeks, 70° C.): 96.94 % area
Purity of DMVT-505 ([1]; in Diethyl sebacate, t = 0): 100.00 % area
Purity of DMVT-505 ([1]; in Diethyl sebacate, t = 2 weeks, 40° C.): 96.72 % area
Purity of DMVT-505 ([1]; in Diethyl sebacate, t = 2 weeks, 70° C.): 95.78 % area
Purity of DMVT-505 ([1]; in Diisopropyl adipate, t = 0): 100.00 % area
Purity of DMVT-505 ([1]; in Diisopropyl adipate, t = 2 weeks, 40° C.): 99.79 % area
Purity of DMVT-505 ([1]; in Diisopropyl adipate, t = 2 weeks, 70° C.): 95.94 % area
Purity of DMVT-505 ([1]; in Dipropylene glycol, t = 0): 99.97 % area
Purity of DMVT-505 ([1]; in Dipropylene glycol, t = 2 weeks, 40° C.): 99.83 % area
Purity of DMVT-505 ([1]; in Dipropylene glycol, t = 2 weeks, 70° C.): 98.89 % area
Purity of DMVT-505 ([1]; in Ethanol, t = 0): 99.89 % area
Purity of DMVT-505 ([1]; in Ethanol, t = 2 weeks, 40° C.): 99.72 % area
Purity of DMVT-505 ([1]; in Ethanol, t = 2 weeks, 70° C.): 98.57 % area
Purity of DMVT-505 ([1]; in Hexylene glycol, t = 0): 99.96 % area
Purity of DMVT-505 ([1]; in Hexylene glycol, t = 2 weeks, 40° C.): 99.54 % area
Purity of DMVT-505 ([1]; in Hexylene glycol, t = 2 weeks, 70° C.): 98.76 % area
Purity of DMVT-505 ([1]; in IPA, t = 0): 99.91 % area
Purity of DMVT-505 ([1]; in IPA, t = 2 weeks, 40° C.): 99.86 % area
Purity of DMVT-505 ([1]; in IPA, t = 2 weeks, 70° C.): 99.25 % area
Purity of DMVT-505 ([1]; in IPM, t = 0): 100.00 % area
Purity of DMVT-505 ([1]; in IPM, t = 2 weeks, 40° C.): 99.32 % area
Purity of DMVT-505 ([1]; in IPM, t = 2 weeks, 70° C.): 92.15 % area
Purity of DMVT-505 ([1]; in IPP, t = 0): 100.00 % area
Purity of DMVT-505 ([1]; in IPP, t = 2 weeks, 40° C.): 99.30 % area
Purity of DMVT-505 ([1]; in IPP, t = 2 weeks, 70° C.): 99.52 % area
Purity of DMVT-505 ([1]; in Jojoba oil, t = 0): 99.97 % area
Purity of DMVT-505 ([1]; in Jojoba oil, t = 2 weeks, 40° C.): 98.98 % area
Purity of DMVT-505 ([1]; in Jojoba oil, t = 2 weeks, 70° C.): 99.09 % area
Purity of DMVT-505 ([1]; in Kollicream ® 3C, t = 0): 100.00 % area
Purity of DMVT-505 ([1]; in Kollicream ® 3C, t = 2 weeks, 40° C.): 98.98 % area
Purity of DMVT-505 ([1]; in Kollicream ® 3C, t = 2 weeks, 70° C.): 96.51 % area
Purity of DMVT-505 ([1]; in Kollicream ® OA, t = 0): 100.00 % area
Purity of DMVT-505 ([1]; in Kollicream ® OA, t = 2 weeks, 40° C.): 99.66 % area
Purity of DMVT-505 ([1]; in Kollicream ® OA, t = 2 weeks, 70° C.): 99.46 % area
Purity of DMVT-505 ([1]; in Kollicream ® OD, t = 0): 100.00 % area
Purity of DMVT-505 ([1]; in Kollicream ® OD, t = 2 weeks, 40° C.): 99.38 % area
Purity of DMVT-505 ([1]; in Kollicream ® OD, t = 2 weeks, 70° C.): 98.11 % area
Purity of DMVT-505 ([1]; in MethoxyPEG 350, t = 0): 99.59 % area
Purity of DMVT-505 ([1]; in MethoxyPEG 350, t = 2 weeks, 40° C.): 98.42 % area
Purity of DMVT-505 ([1]; in MethoxyPEG 350, t = 2 weeks, 70° C.): 95.50 % area
Purity of DMVT-505 ([1]; in Olive oil, t = 0): 100.00 % area
Purity of DMVT-505 ([1]; in Olive oil, t = 2 weeks, 40° C.): 99.91 % area
Purity of DMVT-505 ([1]; in Olive oil, t = 2 weeks, 70° C.): 99.74 % area
Purity of DMVT-505 ([1]; in PEG 200, t = 0): 99.91 % area
Purity of DMVT-505 ([1]; in PEG 200, t = 2 weeks, 40° C.): 99.86 % area
Purity of DMVT-505 ([1]; in PEG 200, t = 2 weeks, 70° C.): 98.56 % area
Purity of DMVT-505 ([1]; in PEG 400, t = 0): 99.87 % area
Purity of DMVT-505 ([1]; in PEG 400, t = 2 weeks, 40° C.): 99.30 % area
Purity of DMVT-505 ([1]; in PEG 400, t = 2 weeks, 70° C.): 98.63 % area
Purity of DMVT-505 ([1]; in Propylene glycol, t = 0): 99.90 % area
Purity of DMVT-505 ([1]; in Propylene glycol, t = 2 weeks, 40° C.): 99.51 % area
Purity of DMVT-505 ([1]; in Propylene glycol, t = 2 weeks, 70° C.): 99.23 % area
Purity of DMVT-505 ([1]; in Sesame oil, t = 0): 100.00 % area
Purity of DMVT-505 ([1]; in Sesame oil, t = 2 weeks, 40° C.): 99.94 % area
Purity of DMVT-505 ([1]; in Sesame oil, t = 2 weeks, 70° C.): 99.67 % area
Purity of DMVT-505 ([1]; in Sorbitan monooleate (Span 80), t = 0): 100.00 % area
Purity of DMVT-505 ([1]; in Sorbitan monooleate (Span 80), t = 2 weeks, 40° C.): 100.00 % area
Purity of DMVT-505 ([1]; in Sorbitan monooleate (Span 80), t = 2 weeks, 70° C.): 99.79 % area
Purity of DMVT-505 ([1]; in Sunflower oil, t = 0): 100.00 % area
Purity of DMVT-505 ([1]; in Sunflower oil, t = 2 weeks, 40° C.): 100.00 % area
Purity of DMVT-505 ([1]; in Sunflower oil, t = 2 weeks, 70° C.): 99.51 % area
Average saturated solubility of DMVT-505 (mean of n = 3) ([2]; in Almond oil): 11.94 % w/w
Average saturated solubility of DMVT-505 (mean of n = 3) ([2]; in Aloe vera juice): 0.01 % w/w
Average saturated solubility of DMVT-505 (mean of n = 3) ([2]; in Castor oil): 7.06 % w/w
Average saturated solubility of DMVT-505 ([2]; in Dipropylene glycol): ≥20 (visual solubility) % w/w
Average saturated solubility of DMVT-505 ([2]; in Ethanol): ≥20 (visual solubility) % w/w
Average saturated solubility of DMVT-505 ([2]; in Isopropyl myristate): ≥20 (visual solubility) % w/w
Average saturated solubility of DMVT-505 (mean of n = 3) ([2]; in Jojoba oil): 8.19 % w/w
Average saturated solubility of DMVT-505 (mean of n = 3) ([2]; in Kollicream ® 3C (cocoyl caprylocaprate)): 19.03 % w/w
Average saturated solubility of DMVT-505 (mean of n = 3) ([2]; in Kollicream ® OA (oleyl alcohol)): 15.82 % w/w
Average saturated solubility of DMVT-505 (mean of n = 3) ([2]; in Kollicream ® OD (octyldodecanol)): 11.03 % w/w
Average saturated solubility of DMVT-505 ([2]; in MethoxyPEG 350): ≥20 (visual solubility) % w/w
Average saturated solubility of DMVT-505 (mean of n = 3) ([2]; in Olive oil): 11.35 % w/w
Average saturated solubility of DMVT-505 ([2]; in PEG 200): ≥20% (visual solubility) % w/w
Average saturated solubility of DMVT-505 (mean of n = 3) ([2]; in Safflower oil): 11.68 % w/w
Average saturated solubility of DMVT-505 (mean of n = 3) ([2]; in Sesame oil): 11.56 % w/w
Average saturated solubility of DMVT-505 (mean of n = 3) ([2]; in Soyabean oil): 11.68 % w/w
Average saturated solubility of DMVT-505 (mean of n = 3) ([2]; in Sunflower oil): 12.05 % w/w
Average saturated solubility of DMVT-505 (mean of n = 3) ([2]; in Walnut oil): 12.43 % w/w
Solubility (tapinarof saturated solubility) ([3]; in Benzyl alcohol): 193 mg/g
Solubility (tapinarof saturated solubility) ([3]; in Diethyl sebacate): 488 mg/g
Solubility (tapinarof saturated solubility) ([3]; in Diisopropyl adipate): 187 mg/g
Solubility (tapinarof saturated solubility) ([3]; in Dimethyl isosorbide): 496 mg/g
Solubility (tapinarof saturated solubility) ([3]; in Glycerol): 14 mg/g
Solubility (tapinarof saturated solubility) ([3]; in Hexylene glycol): 386 mg/g
Solubility (tapinarof saturated solubility) ([3]; in Isopropyl alcohol): 485 mg/g
Solubility (tapinarof saturated solubility) ([3]; in Isopropyl palmitate): 231 mg/g
Solubility (tapinarof saturated solubility) ([3]; in Medium chain triglycerides): 273 mg/g
Solubility (tapinarof saturated solubility) ([3]; in Mineral oil): 0.26 mg/g
Solubility (tapinarof saturated solubility) ([3]; in Phenoxyethanol): 381 mg/g
Solubility (tapinarof saturated solubility) ([3]; in Polyethylene glycol 400): 373 mg/g
Solubility (tapinarof saturated solubility) ([3]; in Polysorbate 80): 263 mg/g
Solubility (tapinarof saturated solubility) ([3]; in Propylene carbonate): 506 mg/g
Solubility (tapinarof saturated solubility) ([3]; in Propylene glycol): 444 mg/g
Solubility (tapinarof saturated solubility) ([3]; in Sorbitan oleate): 137 mg/g
Solubility (tapinarof saturated solubility) ([3]; in Water): 0.14 mg/g
Solubility (tapinarof saturated solubility) ([3]; in diethylene glycol monoethyl ether (DEGEE)): 526 mg/g
Sensitivity to oxidation and photo degradation [4]: sensitive to oxidation and photo degradation

From patent US20220160650A1, “GEL, OINTMENT, AND FOAM FORMULATIONS OF TAPINAROF AND METHODS OF USE” (Dermavant Sciences GmbH, priority 2020, published 2022)
